In ChEMBL document CHEMBL3784959, “Cyclophosphamide pharmacokinetics and dose requirements in patients with renal insufficiency” (Kidney Int, 2002):

Key:
clinical [1] = conditions: human, in vivo, iv, 1.4 g/m'2
Description: Systemic clearance in patient (6 patients) with moderate renal insufficiency at 1.4 +/- 0.1 g/m'2 administered as pulse therapy with 1 hr infusion by HPLC analysis

clinical [2] = conditions: human, in vivo, iv, 1.2 g/m'2
Description: Systemic clearance in patient (6 patients) with hemodialysis-dependent end-stage renal disease at 1.2 +/- 0.4 g/m'2 administered as pulse therapy with 1 hr infusion followed by hemodialysis for 3 hrs started 7 hrs post dose measured during hemodialysis treatment by HPLC analysis

clinical [3] = conditions: human, in vivo, iv, 1.1 g/m'2
Description: Systemic clearance in patient (6 patients) with severe renal insufficiency at 1.1 +/- 0.2 g/m'2 administered as pulse therapy with 1 hr infusion by HPLC analysis

[4] = Drug excretion in urine of patient (6 patients) with moderate renal insufficiency at 1.4 +/- 0.1 g/m'2 administered as pulse therapy with 1 hr infusion by HPLC analysis; conditions: human, iv, 1.4 g/m'2
[5] = Drug excretion in urine of patient (6 patients) with severe renal insufficiency at 1.1 +/- 0.2 g/m'2 administered as pulse therapy with 1 hr infusion by HPLC analysis; conditions: human, iv, 1.1 g/m'2
[6] = Drug excretion in urine of patient (6 patients) with hemodialysis-dependent end-stage renal disease at 1.2 +/- 0.4 g/m'2 administered as pulse therapy with 1 hr infusion followed by hemodialysis for 3 hrs started 7 hrs post dose measured during hemodialysis treatment by HPLC analysis; conditions: human, iv, 1.2 g/m'2
[7] = Drug recovery in normal human urine
clinical [8] = conditions: human, in vivo, iv, 1.2 g/m'2; remark: listed apart in the source
Description: Renal clearance in patient (6 patients) with hemodialysis-dependent end-stage renal disease at 1.2 +/- 0.4 g/m'2 administered as pulse therapy with 1 hr infusion followed by hemodialysis for 3 hrs started 7 hrs post dose measured during hemodialysis treatment by HPLC analysis

[9] = Volume of distribution at steady state in patient (6 patients) with moderate renal insufficiency at 1.4 +/- 0.1 g/m'2 administered as pulse therapy with 1 hr infusion by HPLC analysis; conditions: human, in vivo, iv, 1.4 g/m'2
clinical [10] = conditions: human, in vivo, iv, 1.1 g/m'2; remark: listed apart in the source
Description: Renal clearance in patient (6 patients) with severe renal insufficiency at 1.1 +/- 0.2 g/m'2 administered as pulse therapy with 1 hr infusion by HPLC analysis

clinical [11] = conditions: human, in vivo, iv, 0.83 g/m'2
Description: Elimination half life in patient ( 12 patients) with normal renal function at 0.83 +/- 0.05 g/m'2 administered as pulse therapy with 1 hr infusion by HPLC analysis

[12] = Volume of distribution at steady state in patient (6 patients) with hemodialysis-dependent end-stage renal disease at 1.2 +/- 0.4 g/m'2 administered as pulse therapy with 1 hr infusion followed by hemodialysis for 3 hrs started 7 hrs post dose measured during hemodialysis treatment by HPLC analysis; conditions: human, in vivo, iv, 1.2 g/m'2
[13] = Volume of distribution at steady state in patient (6 patients) with severe renal insufficiency at 1.1 +/- 0.2 g/m'2 administered as pulse therapy with 1 hr infusion by HPLC analysis; conditions: human, in vivo, iv, 1.1 g/m'2
[14] = Drug excretion in urine of patient ( 12 patients) with normal renal function at 0.83 +/- 0.05 g/m'2 administered as pulse therapy with 1 hr infusion by HPLC analysis; conditions: human, iv, 0.83 g/m'2
clinical [15] = conditions: human, in vivo, iv, 1.2 g/m'2; remark: listed apart in the source
Description: Elimination half life in patient (6 patients) with hemodialysis-dependent end-stage renal disease at 1.2 +/- 0.4 g/m'2 administered as pulse therapy with 1 hr infusion followed by hemodialysis for 3 hrs started 7 hrs post dose measured during hemodialysis treatment by HPLC analysis

clinical [16] = conditions: human, in vivo, iv, 1.4 g/m'2; remark: listed apart in the source
Description: Elimination half life in patient (6 patients) with moderate renal insufficiency at 1.4 +/- 0.1 g/m'2 administered as pulse therapy with 1 hr infusion by HPLC analysis

clinical [17] = conditions: human, in vivo, iv, 0.83 g/m'2; remark: listed apart in the source
Description: Systemic clearance in patient ( 12 patients) with normal renal function at 0.83 +/- 0.05 g/m'2 administered as pulse therapy with 1 hr infusion by HPLC analysis

[18] = Drug excretion in dialysate of patient (4 patients) with chronic renal failure at 100 mg, iv administered over 10 mins followed by hemodialysis for 4 hrs measured during hemodialysis treatment by GLC analysis; conditions: human
clinical [19] = conditions: human, in vivo, iv, 1.1 g/m'2; remark: listed apart in the source
Description: Elimination half life in patient (6 patients) with severe renal insufficiency at 1.1 +/- 0.2 g/m'2 administered as pulse therapy with 1 hr infusion by HPLC analysis

clinical [20] = conditions: human, in vivo, iv, 0.83 g/m'2; remark: listed apart in the source
Description: Volume of distribution at steady state in patient ( 12 patients) with normal renal function at 0.83 +/- 0.05 g/m'2 administered as pulse therapy with 1 hr infusion by HPLC analysis

clinical [21] = conditions: human, in vivo, iv, 1.4 g/m'2; remark: listed apart in the source
Description: Renal clearance in patient (6 patients) with moderate renal insufficiency at 1.4 +/- 0.1 g/m'2 administered as pulse therapy with 1 hr infusion by HPLC analysis

clinical [22] = conditions: human, in vivo, iv, 0.83 g/m'2; remark: listed apart in the source
Description: Renal clearance in patient ( 12 patients) with normal renal function at 0.83 +/- 0.05 g/m'2 administered as pulse therapy with 1 hr infusion by HPLC analysis

## O=P1(N(CCCl)CCCl)NCCCO1 (configuration not stated) [CYCLOPHOSPHAMIDE ANHYDROUS]
Clinical [1]
  clearance at 1 h: 57 mL/min
Clinical [2]
  clearance: 64 mL/min
Clinical [3]
  clearance at 1 h: 47 mL/min
[4]
  dose excreted at 1 h: 5.8%
[5]
  dose excreted at 1 h: 5.6%
[6]
  dose excreted: 3%
[7]
  dose excreted: ≤ 25%
Clinical [8]
  CL renal at 7 h: 2.1 mL/min
[9]
  Vd at 1 h: 0.36 L/kg
Clinical [10]
  CL renal at 1 h: 2.4 mL/min
Clinical [11]
  half-life at 1 h: 4.8 h
[12]
  Vd: 0.49 L/kg
[13]
  Vd at 1 h: 0.36 L/kg
[14]
  dose excreted at 1 h: 19.1%
Clinical [15]
  half-life: 7.3 h
Clinical [16]
  half-life at 1 h: 6.4 h
Clinical [17]
  clearance at 1 h: 79 mL/min
[18]
  dose excreted at 4 h: 37%
Clinical [19]
  half-life at 1 h: 7.3 h
Clinical [20]
  Vd at 1 h: 0.49 L/kg
Clinical [21]
  CL renal at 1 h: 3.4 mL/min
Clinical [22]
  CL renal at 1 h: 14.9 mL/min
